Laboratory results as given in patent US11285156B2, “Substituted piperazines as KRAS G12C inhibitors” (Amgen Inc., priority 2018, dated 2022).
Like-named read-outs stand apart in the source and are kept apart here.

Legend:
[1] = target: GDP-bound KRAS protein (aa 1-169), containing both G12C and C118A amino acid substitutions (Homo sapiens (Human), UniProt P01116, C118A/G12C); assay: Coupled nucleotide exchange assay (SOS-mediated nucleotide exchange, AlphaScreen); type: biochemical; details: 5 min compound pre-incubation; for IC50: read-out: Coupled exchange IC50 (5 min; μM)
GDP-bound KRAS protein (aa 1-169), containing both G12C and C118A amino acid substitutions, sequence (P01116 other isoform, or with tags, fused parts or gaps G12C/C118A): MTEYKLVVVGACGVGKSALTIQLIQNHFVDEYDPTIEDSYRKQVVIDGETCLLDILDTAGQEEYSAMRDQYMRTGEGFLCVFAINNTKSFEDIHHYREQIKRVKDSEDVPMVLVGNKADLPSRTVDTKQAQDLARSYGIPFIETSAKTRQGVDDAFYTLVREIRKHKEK

[2] = system: Phosphorylation of ERK1/2 in A549 cells; assay: Phospho-ERK1/2 MSD assay in A549 cells; type: cell-based; details: read-out: p-ERK IC50 (2 h, A549; μM), 2 h compound treatment, A549 cells, EGF stimulated
How it was run: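 Phospho-ERK1/2 was quantified by MSD immunoassay in RIPA lysates of MIA PaCa-2 or A549 cells. Before lysis, cells received 10 ng/mL EGF for 10 min after 2 or 4 h exposure at 37° C. to a compound concentration series.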

[3] = system: Phosphorylation of ERK1/2 in MIA PaCa-2 cells; assay: Phospho-ERK1/2 MSD assay in MIA PaCa-2 cells; type: cell-based; details: read-out: p-ERK IC50 (2 h, MiaPaCa-2; μM), 2 h compound treatment, MIA PaCa-2 cells, EGF stimulated
How it was run: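 Phospho-ERK1/2 measured by MSD electrochemiluminescence kit in RIPA lysates of MIA PaCa-2 cells. Cells were treated with compound titrations for 2 or 4 h at 37 °C, 5% CO2, followed by a 10 min pulse of 10 ng/mL EGF.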

C=CC(=O)N1CCN(c2nc(=O)n(CC(C)(C)C)c3nc(-c4ccccc4F)c(Cl)cc23)C[C@@H]1CO [Example 106-3, 6-Chloro-1-(2,2-dimethylpropyl)-7-(2-fluorophenyl)-4-[(3R)-3-(hydroxymethyl)-4-prop-2-enoyl-piperazin-1-yl]pyrido[2,3-d]pyrimidin-2-one]
IC50 [1]: 8.34 µM | IC50 ([2]; Homo sapiens, A549, 2 h): > 7.5 µM | IC50 ([3]; Homo sapiens, MIA PaCa-2, 2 h): 10 µM

C=CC(=O)N1C[C@H](C)N(c2nc(=O)n(CC(C)(C)OC)c3nc(-c4ccccc4F)c(Cl)cc23)C[C@H]1C [Example 106-4, 6-Chloro-4-[(2S,5R)-2,5-dimethyl-4-prop-2-enoyl-piperazin-1-yl]-7-(2-fluorophenyl)-1-(2-methoxy-2-methyl-propyl)pyrido[2,3-d]pyrimidin-2-one]
IC50 [1]: 5.04 µM | IC50 ([2]; Homo sapiens, A549, 2 h): > 7.5 µM | IC50 ([3]; Homo sapiens, MIA PaCa-2, 2 h): 2.45 µM

C=CC(=O)N1CCN(c2nc(=O)n(CC(C)(C)OC)c3nc(-c4ccccc4F)c(Cl)cc23)CC1 [Example 106-5, 6-Chloro-7-(2-fluorophenyl)-1-(2-methoxy-2-methyl-propyl)-4-(4-prop-2-enoylpiperazin-1-yl)pyrido[2,3-d]pyrimidin-2-one]
IC50 [1]: 6.13 µM | IC50 ([2]; Homo sapiens, A549, 2 h): > 7.5 µM | IC50 ([3]; Homo sapiens, MIA PaCa-2, 2 h): 1.46 µM

C=CC(=O)N1C[C@@H](C)N(c2nc(=O)n(-c3c(C)ccnc3C(C)C)c3nc(-c4ccccc4F)c(Cl)nc23)[C@@H](C)C1 [Example 106-7-2, 6-Chloro-4-[(2R,6S)-2,6-dimethyl-4-prop-2-enoyl-piperazin-1-yl]-7-(2-fluorophenyl)-1-(2-isopropyl-4-methyl-3-pyridyl)pteridin-2-one]
IC50 [1]: 0.129 µM | IC50 ([2]; Homo sapiens, A549, 2 h): > 7.5 µM | IC50 ([3]; Homo sapiens, MIA PaCa-2, 2 h): 0.271 µM

C=CC(=O)N1C[C@H](C)N(c2nc(=O)n(CC(C)(C)C#N)c3nc(-c4ccccc4F)c(Cl)cc23)C[C@H]1C [Example 106-8, 3-[6-Chloro-4-[(2S,5R)-2,5-dimethyl-4-prop-2-enoyl-piperazin-1-yl]-7-(2-fluorophenyl)-2-oxo-pyrido[2,3-d]pyrimidin-1-yl]-2,2-dimethyl-propanenitrile]
IC50 [1]: 3.35 µM | IC50 ([2]; Homo sapiens, A549, 2 h): > 7.5 µM | IC50 ([3]; Homo sapiens, MIA PaCa-2, 2 h): 1.88 µM

C=CC(=O)N1CCN(c2nc(=O)n(CC(C)(C)C#N)c3nc(-c4ccccc4F)c(Cl)cc23)[C@@H](C)C1 [Example 106-9, 3-[6-Chloro-7-(2-fluorophenyl)-4-[(2S)-2-methyl-4-prop-2-enoyl-piperazin-1-yl]-2-oxo-pyrido[2,3-d]pyrimidin-1-yl]-2,2-dimethyl-propanenitrile]
IC50 [1]: 3.7 µM | IC50 ([2]; Homo sapiens, A549, 2 h): > 7.5 µM | IC50 ([3]; Homo sapiens, MIA PaCa-2, 2 h): 2.24 µM

C=CC(=O)N1C[C@H](C)N(c2nc(=O)n(-c3c(C(C)C)nc(NC)nc3C(C)C)c3nc(-c4ccccc4F)c(Cl)cc23)C[C@H]1C [Example 107-1, 4-((2S,5R)-4-Acryloyl-2,5-dimethylpiperazin-1-yl)-6-chloro-1-(4,6-diisopropyl-2-(methylamino)pyrimidin-5-yl)-7-(2-fluorophenyl)pyrido[2,3-d]pyrimidin-2(1H)-one]
IC50 [1]: 0.026 µM | IC50 ([2]; Homo sapiens, A549, 2 h): 5.57 µM | IC50 ([3]; Homo sapiens, MIA PaCa-2, 2 h): 0.064 µM

C=CC(=O)N1C[C@H](C)N(c2nc(=O)n(-c3c(C(C)C)nc(N(C)C)nc3C(C)C)c3nc(-c4ccccc4F)c(Cl)cc23)C[C@H]1C [Example 107-2, 6-Chloro-1-[2-(dimethylamino)-4,6-diisopropyl-pyrimidin-5-yl]-4-[(2S,5R)-2,5-dimethyl-4-prop-2-enoyl-piperazin-1-yl]-7-(2-fluorophenyl)pyrido [2,3-d]pyrimidin-2-one]
IC50 [1]: 0.098 µM | IC50 ([2]; Homo sapiens, A549, 2 h): 1.25 µM | IC50 ([3]; Homo sapiens, MIA PaCa-2, 2 h): 0.299 µM

C=CC(=O)N1C[C@H](C)N(c2nc(=O)n(-c3c(C(C)C)nc(N4CCOCC4)nc3C(C)C)c3nc(-c4ccccc4F)c(Cl)cc23)C[C@H]1C [Example 107-3, 6-Chloro-1-(4,6-diisopropyl-2-morpholino-pyrimidin-5-yl)-4-[(2S,5R)-2,5-dimethyl-4-prop-2-enoyl-piperazin-1-yl]-7-(2-fluorophenyl)pyrido [2,3-d]pyrimidin-2-one]
IC50 [1]: 0.114 µM | IC50 ([2]; Homo sapiens, A549, 2 h): 3.73 µM | IC50 ([3]; Homo sapiens, MIA PaCa-2, 2 h): 0.144 µM

C=CC(=O)N1C[C@H](C)N(c2nc(=O)n(-c3c(C(C)C)nc(NCCN(C)C)nc3C(C)C)c3nc(-c4ccccc4F)c(Cl)cc23)C[C@H]1C [Example 107-4, 6-Chloro-1-[2-[2-(dimethylamino)ethylamino]-4,6-diisopropyl-pyrimidin-5-yl]-4-[(2S,5R)-2,5-dimethyl-4-prop-2-enoyl-piperazin-1-yl]-7-(2-fluorophenyl)pyrido [2,3-d]pyrimidin-2-one]
IC50 [1]: 0.051 µM | IC50 ([2]; Homo sapiens, A549, 2 h): > 7.5 µM | IC50 ([3]; Homo sapiens, MIA PaCa-2, 2 h): 0.085 µM

C=CC(=O)N1C[C@H](C)N(c2nc(=O)n(-c3c(C(C)C)nc(N4CCC4)nc3C(C)C)c3nc(-c4ccccc4F)c(Cl)cc23)C[C@H]1C [Example 107-5, 1-[2-(Azetidin-1-yl)-4,6-diisopropyl-pyrimidin-5-yl]-6-chloro-4-[(2S,5R)-2,5-dimethyl-4-prop-2-enoyl-piperazin-1-yl]-7-(2-fluorophenyl)pyrido [2,3-d]pyrimidin-2-one]
IC50 [1]: 0.103 µM | IC50 ([2]; Homo sapiens, A549, 2 h): 3.25 µM | IC50 ([3]; Homo sapiens, MIA PaCa-2, 2 h): 0.3 µM

C=CC(=O)N1C[C@H](C)N(c2nc(=O)n(-c3c(C(C)C)ncnc3C3CC3)c3nc(-c4ccccc4F)c(Cl)cc23)C[C@H]1C [Example 108-1, 4-((2S,5R)-4-Acryloyl-2,5-dimethylpiperazin-1-yl)-6-chloro-1-(4-cyclopropyl-6-isopropylpyrimidin-5-yl)-7-(2-fluorophenyl)pyrido[2,3-d]pyrimidin-2(1H)-one]
IC50 [1]: 0.009 µM | IC50 ([2]; Homo sapiens, A549, 2 h): > 7.5 µM | IC50 [3]: 0.039 µM

C=CC(=O)N1C[C@H](C)N(c2nc(=O)n(-c3c(C(C)C)ncnc3C3CC3)c3nc(-c4ccccc4C)c(Cl)cc23)C[C@H]1C [Example 108-2, 6-Chloro-1-(4-cyclopropyl-6-isopropyl-pyrimidin-5-yl)-4-[(2S,5R)-2,5-dimethyl-4-prop-2-enoyl-piperazin-1-yl]-7-(o-tolyl)pyrido[2,3-d]pyrimidin-2-one]
IC50 [1]: 0.049 µM | IC50 ([2]; Homo sapiens, A549, 2 h): > 7.5 µM | IC50 [3]: 0.032 µM

C=CC(=O)N1C[C@H](C)N(c2nc(=O)n(-c3c(CC)ncnc3C(C)C)c3nc(-c4ccccc4F)c(Cl)cc23)C[C@H]1C [Example 109-1, 4-((2S,5R)-4-Acryloyl-2,5-dimethylpiperazin-1-yl)-6-chloro-1-(4-ethyl-6-isopropylpyrimidin-5-yl)-7-(2-fluorophenyl)pyrido[2,3-d]pyrimidin-2(1H)-one]
IC50 [1]: 0.194 µM | IC50 ([2]; Homo sapiens, A549, 2 h): > 7.5 µM | IC50 ([3]; Homo sapiens, MIA PaCa-2, 2 h): 0.052 µM

C=CC(=O)N1C[C@H](C)N(c2nc(=O)n(-c3c(CC)ncnc3C(C)C)c3nc(-c4ccccc4C)c(Cl)cc23)C[C@H]1C [Example 109-2, 6-Chloro-4-[(2S,5R)-2,5-dimethyl-4-prop-2-enoyl-piperazin-1-yl]-1-(4-ethyl-6-isopropyl-pyrimidin-5-yl)-7-(o-tolyl)pyrido[2,3-d]pyrimidin-2-one]
Coupled exchange IC50 (5 min; μM) [1]: 0.107 µM | IC50 ([2]; Homo sapiens, A549, 2 h): > 7.5 µM | IC50 ([3]; Homo sapiens, MIA PaCa-2, 2 h): 0.098 µM

C=CC(=O)N1C[C@H](C)N(c2nc(=O)n(CC(C)(C)C)c3nc(-c4ccccc4F)c(Cl)cc23)C[C@H]1C [Example 110-1, 4-((2S,5R)-4-Acryloyl-2,5-dimethylpiperazin-1-yl)-6-chloro-7-(2-fluorophenyl)-1-neopentylpyrido[2,3-d]pyrimidin-2(1H)-one]
IC50 [1]: 0.57 µM | IC50 ([2]; Homo sapiens, A549, 2 h): > 7.5 µM | IC50 ([3]; Homo sapiens, MIA PaCa-2, 2 h): 1.12 µM

C=CC(=O)N1C[C@H](C)N(c2nc(=O)n(-c3c(C)cc(CN(C)C)nc3C(C)C)c3nc(-c4ccccc4F)c(Cl)cc23)C[C@H]1C [Example 121-1, 4-((2S,5R)-4-Acryloyl-2,5-dimethylpiperazin-1-yl)-6-chloro-1-(6-((dimethylamino)methyl)-2-isopropyl-4-methylpyridin-3-yl)-7-(2-fluorophenyl)pyrido[2,3-d]pyrimidin-2(1H)-one]
IC50 [1]: 0.195 µM | IC50 ([2]; Homo sapiens, A549, 2 h): > 7.5 µM | IC50 ([3]; Homo sapiens, MIA PaCa-2, 2 h): 0.086 µM

C=CC(=O)N1C[C@H](C)N(c2nc(=O)n(-c3c(C)cc(CN4CCCC4)nc3C(C)C)c3nc(-c4ccccc4F)c(Cl)cc23)C[C@H]1C [Example 121-2, 6-Chloro-4-[(2S,5R)-2,5-dimethyl-4-prop-2-enoyl-piperazin-1-yl]-7-(2-fluorophenyl)-1-[2-isopropyl-4-methyl-6-(pyrrolidin-1-ylmethyl)-3-pyridyl]pyrido[2,3-d]pyrimidin-2-one]
IC50 [1]: 0.096 µM | IC50 ([2]; Homo sapiens, A549, 2 h): > 7.5 µM | IC50 ([3]; Homo sapiens, MIA PaCa-2, 2 h): 0.081 µM

C=CC(=O)N1[C@H](C)CN(c2nc(=O)n(-c3c(C(C)C)ccnc3C(C)C)c3nc(-c4ccccc4C)c(Cl)cc23)C[C@@H]1C [Example 124-11, 6-Chloro-1-(2,4-diisopropyl-3-pyridyl)-4-[(3R,5S)-3,5-dimethyl-4-prop-2-enoyl-piperazin-1-yl]-7-(o-tolyl)pyrido[2,3-d]pyrimidin-2-one]
IC50 [1]: 0.075 µM | IC50 ([2]; Homo sapiens, A549, 2 h): > 7.5 µM | IC50 ([3]; Homo sapiens, MIA PaCa-2, 2 h): 0.098 µM

C=CC(=O)N1C[C@H](C)N(c2nc(=O)n(-c3c(C(C)C)ccnc3C(C)C)c3nc(-c4ccccc4F)c(Cl)cc23)C[C@H]1C [Example 125-1, 4-((2S,5R)-4-Acryloyl-2,5-dimethylpiperazin-1-yl)-6-chloro-1-(2,4-diisopropylpyridin-3-yl)-7-(2-fluorophenyl)pyrido[2,3-d]pyrimidin-2(1H)-one]
IC50 [1]: 0.028 µM | IC50 [2]: > 7.5 µM | IC50 [3]: 0.055 µM
